{"source": "patent US9815802B2", "about": "“Herbicidally active N-(1-methyltetrazol-5-yl)benzoic acid amides” (BAYER CROPSCIENCE AKTIENGESELLSCHAFT, priority 2014, dated 2017)", "format_in_all_cases": "in vivo", "key": {"Setaria viridis": {"system": "Setaria viridis", "test": "Post-emergence herbicidal action against SETVI", "protocol": "(§1) Post-Emergence Herbicidal Action Against Harmful Plants Seeds of monocotyledonous and dicotyledonous weed and crop plants are laid out in sandy loam in wood-fiber pots, covered with soil and cultivated in a greenhouse under good growth conditions. 2 to 3 weeks after sowing, the test plants are treated at the one-leaf stage. The compounds of the invention, formulated in the form of wettable powders (WP) or as emulsion concentrates (EC), are then sprayed onto the green parts of the plants in the form of an aqueous suspension or emulsion at a water application rate equating to 600 to 800 I/ha, with addition of 0.2% wetting agent. After the test plants have been left to stand in the greenhouse under optimal growth conditions for about 3 weeks, the action of the preparations is assessed visually in comparison to untreated controls (herbicidal action in percent (%): 100% activity=the plants have died, 0% activity=like control plants)."}, "Stellaria media": {"system": "Stellaria media", "test": "Post-emergence herbicidal action against STEME", "settings": "dosage 5 g/ha", "protocol": "as §1"}, "Abutilon theophrasti": {"system": "Abutilon theophrasti", "test": "Post-emergence herbicidal action against ABUTH", "settings": "dosage 80 g/ha", "protocol": "as §1"}, "Echinochloa crus galli": {"system": "Echinochloa crus galli", "test": "Post-emergence herbicidal action against ECHCG", "settings": "dosage 80 g/ha", "protocol": "as §1"}}}
{"smiles": "CCc1ccc(C(=O)Nc2nnnn2C)c(C)c1SOC", "values": [{"measurement": "Activity against SETVI", "setting": "Setaria viridis; dosage 5 g/ha", "result": 100, "unit": "%"}, {"measurement": "Activity against STEME", "setting": "Stellaria media", "result": 100, "unit": "%"}]}
{"smiles": "COSc1c(C)ccc(C(=O)Nc2nnnn2C)c1C", "note": "[drawing 38]", "values": [{"measurement": "Activity against SETVI", "setting": "Setaria viridis; dosage 80 g/ha", "result": 100, "unit": "%"}, {"measurement": "Activity against ABUTH", "setting": "Abutilon theophrasti", "result": 100, "unit": "%"}, {"measurement": "Activity against ECHCG", "setting": "Echinochloa crus galli", "result": 100, "unit": "%"}]}
{"smiles": "COSc1c(C)ccc(C(=O)Nc2nnnn2C)c1C", "note": "[drawing 39, reference compound]", "values": [{"measurement": "Activity against SETVI", "setting": "Setaria viridis; dosage 80 g/ha", "result": 20, "unit": "%"}, {"measurement": "Activity against ABUTH", "setting": "Abutilon theophrasti", "result": 80, "unit": "%"}, {"measurement": "Activity against ECHCG", "setting": "Echinochloa crus galli", "result": 40, "unit": "%"}]}
{"smiles": "COSc1c(S(C)(=O)=O)ccc(C(=O)Nc2nnnn2C)c1C", "note": "[drawing 50, reference compound]", "values": [{"measurement": "Activity against SETVI", "setting": "Setaria viridis; dosage 5 g/ha", "result": 40, "unit": "%"}, {"measurement": "Activity against STEME", "setting": "Stellaria media", "result": 80, "unit": "%"}]}
{"smiles": "COSc1c(C)ccc(C(=O)Nc2nnnn2C)c1[N+](=O)[O-]", "note": "[drawing 63]", "values": [{"measurement": "Activity against SETVI", "setting": "Setaria viridis; Table T, dosage 80 g/ha", "result": 0, "unit": "%"}, {"measurement": "Activity against ECHCG", "setting": "Echinochloa crus galli; Table T", "result": 20, "unit": "%"}]}
{"smiles": "Cc1ccc(C(=O)Nc2nnnn2C)c([N+](=O)[O-])c1S(C)(=O)=O", "note": "[drawing 66]", "values": [{"measurement": "Activity against SETVI", "setting": "Setaria viridis; Table U, dosage 80 g/ha", "result": 0, "unit": "%"}, {"measurement": "Activity against ECHCG", "setting": "Echinochloa crus galli; Table U", "result": 0, "unit": "%"}]}
{"smiles": "COSc1c(C(F)(F)F)ccc(C(=O)Nc2nnnn2C)c1C", "note": "[reference compound]", "values": [{"measurement": "Activity against SETVI", "setting": "Setaria viridis; dosage 5 g/ha", "result": 80, "unit": "%"}, {"measurement": "Activity against STEME", "setting": "Stellaria media", "result": 80, "unit": "%"}]}
